In US7385027B2, “Membrane-permeable peptide capable of calpain inhibition” (University of Kentucky Research Foundation, priority 2003, dated 2008):

Columns and labels:
[1] = molecular target: T1, calpain I (Homo sapiens, UniProt P07384); assay: Tau protein degradation by calpain I; type: biochemical; conditions: 100 μM LSEAL; FIG. 3
T1 sequence (P07384 1-714): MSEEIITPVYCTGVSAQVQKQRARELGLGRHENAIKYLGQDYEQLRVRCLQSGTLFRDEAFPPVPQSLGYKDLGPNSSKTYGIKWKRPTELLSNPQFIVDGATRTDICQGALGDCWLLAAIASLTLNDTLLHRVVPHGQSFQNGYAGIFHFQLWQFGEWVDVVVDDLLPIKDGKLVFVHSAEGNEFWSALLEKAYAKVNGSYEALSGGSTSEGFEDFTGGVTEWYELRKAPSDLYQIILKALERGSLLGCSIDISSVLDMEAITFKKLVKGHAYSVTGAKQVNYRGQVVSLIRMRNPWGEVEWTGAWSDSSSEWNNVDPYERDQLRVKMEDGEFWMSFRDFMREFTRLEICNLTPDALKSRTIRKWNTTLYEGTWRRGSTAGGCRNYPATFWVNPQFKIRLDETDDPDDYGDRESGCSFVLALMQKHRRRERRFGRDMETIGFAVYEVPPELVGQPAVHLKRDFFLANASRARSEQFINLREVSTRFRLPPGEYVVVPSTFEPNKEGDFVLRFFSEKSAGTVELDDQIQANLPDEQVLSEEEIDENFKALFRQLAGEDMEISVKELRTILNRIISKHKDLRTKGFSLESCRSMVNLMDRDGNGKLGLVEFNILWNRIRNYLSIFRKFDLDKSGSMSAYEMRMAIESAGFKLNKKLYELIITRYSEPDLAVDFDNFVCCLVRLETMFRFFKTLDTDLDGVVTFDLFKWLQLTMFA
T1 sequence (P04632 1-268 partner): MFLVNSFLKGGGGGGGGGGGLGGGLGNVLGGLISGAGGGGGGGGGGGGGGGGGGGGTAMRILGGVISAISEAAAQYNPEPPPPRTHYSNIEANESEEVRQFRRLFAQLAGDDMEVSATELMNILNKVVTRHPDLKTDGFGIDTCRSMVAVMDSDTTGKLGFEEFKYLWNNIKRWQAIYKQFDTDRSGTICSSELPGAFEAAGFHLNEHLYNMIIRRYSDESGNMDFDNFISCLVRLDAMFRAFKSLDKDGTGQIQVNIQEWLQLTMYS
Procedure: Another experiment was conducted to show the effect of the proteins of the present invention on the tau protein. The tau protein is a microtubule-associated protein (MAP). Tau is a well-described calpain I substrate.

[2] = test system: cultured cortical neurons from rat brains; assay: Ionomycin-induced cell death of cultured cortical neurons (calcein AM / propidium iodide); type: cell-based
Text: (§1) In the first experiment, cell death of the neurons was induced by exposing the culture to ionomycin. In the second experiment, cell death was induced by exposing the neurons to 30 and 60 mJ/cm^2 of UV light. The exposure to either ionomycin or UV light caused calpain I to be activated because of ionomycin-mediated calcium flux or through UV-induced receptors, channels or pore-like structures. Calcein acetoxymethyl ester was used as indicator of live neuron cells while propidium iodide was used an indicator of dead neuron cells.
In the first experiment, ten Samples were prepared. Sample 1 was a control Sample and included the cultured cortical neurons only. A baseline for the average percentage of cell death was determined to be 19%. In Sample 2, 0.4 μM ionomycin was added to the cultured neuron cells to activate calpain I. No LSEAL was added to these Samples. The addition of ionomycin to these Samples caused the percentage of dead cells to more than triple to an average of 68%. Sample 3 was the same as Sample 2 except that 0.00001 micromolar of LSEAL was added before the ionomycin was added. The percentage of dead cells averaged of 106% of no LSEAL. Sample 4 was the same as Sample 3 except that 0.0001 micromolar of LSEAL was added. The percentage of cell death was 83% of no LSEAL. Sample 5 was the same as Sample 4 except that 0.001 micromolar LSEAL was added. The percentage of cell death was 63% of no LSEAL. Sample 6 was the same as Sample 5 except that 0.01 micromolar LSEAL was added. The percentage of cell death was 61% of no LSEAL. Sample 7 was the same as Sample 6 except that 0.1 micromolar LSEAL was added. The percentage of cell death was 57% of no LSEAL. Sample 8 was the same as Sample 7 except that 1.0 micromolar LSEAL was added. The percentage of cell death was 48% of no LSEAL. Sample 9 was the same as Sample 8 except that 10.0 micromolar LSEAL was added. The percentage of cell death was 35% of no LSEAL. Sample 10 was the same as Sample 9 except that 100 micromolar LSEAL was added. The percentage of cell death was 33% of no LSEAL. […] The results are summarized in Table 1 below and the results are graphically illustrated in FIG. 1

[3] = test system: cultured cortical neurons from rat brains; assay: UV light-induced cell death of cultured cortical neurons; type: cell-based; conditions: for Dead Cells / Live Cells: cell count
Text: as §1
In the second experiment, cell death of the cultured cortical neurons was induced by UV light. […] The percentage of cell death was 18%. Sample 14 is the same as Sample 11, except for the addition of 100 μM LSEAL to the culture. The percentage of cell death was reduced from 18% to 14%. Sample 12 was exposed to 30 mJ/cm^2 of UV light. The percentage of cell death was 58%. The inclusion of the LSEAL before exposure reduced the percentage of cell death to 25%. See Sample 15. […] The data for the experiment is set forth below in Tables 3 and 4, and is graphically illustrated in FIG. 2.

[4] = 0 mJ/cm^2 UV light, LSEAL (Sample 14)
[5] = 30 mJ/cm^2 UV light, LSEAL (Sample 15)
[6] = 60 mJ/cm^2 UV light, LSEAL (Sample 16)

Effect on tau degradation by calpain I [1]: inhibits degradation
Substance: Leu-Ser-Glu-Ala-Leu (LSEAL; listed as Homo sapiens)
Percentage Average cell death (ratioed to 0 LSEAL) ([2]; 0.00001 micromolar LSEAL added before 0.4 μM ionomycin (Sample 3)): 106%
Percentage Average cell death (ratioed to 0 LSEAL) ([2]; 0.0001 micromolar LSEAL, 0.4 μM ionomycin (Sample 4)): 83%
Percentage Average cell death (ratioed to 0 LSEAL) ([2]; 0.001 micromolar LSEAL, 0.4 μM ionomycin (Sample 5)): 63%
Percentage Average cell death (ratioed to 0 LSEAL) ([2]; 0.01 micromolar LSEAL, 0.4 μM ionomycin (Sample 6)): 61%
Percentage Average cell death (ratioed to 0 LSEAL) ([2]; 0.1 micromolar LSEAL, 0.4 μM ionomycin (Sample 7)): 57%
Percentage Average cell death (ratioed to 0 LSEAL) ([2]; 1.0 micromolar LSEAL, 0.4 μM ionomycin (Sample 8)): 48%
Percentage Average cell death (ratioed to 0 LSEAL) ([2]; 10.0 micromolar LSEAL, 0.4 μM ionomycin (Sample 9)): 35%
Percentage Average cell death (ratioed to 0 LSEAL) ([2]; 100 micromolar LSEAL, 0.4 μM ionomycin (Sample 10)): 33%
% Dead Cells ([3]; 0 mJ/cm^2 UV light, 100 μM LSEAL (Sample 14), control without LSEAL 18%): 14%
Dead Cells [3, 4]: 5
Live Cells [3, 4]: 30
Dead Cells [3, 5]: 26
Live Cells [3, 5]: 78
% Dead Cells ([3]; 30 mJ/cm^2 UV light, LSEAL included before exposure (Sample 15), control without LSEAL 58%): 25%
Dead Cells [3, 6]: 25
Live Cells [3, 6]: 56
% Dead Cells ([3]; 60 mJ/cm^2 UV light, culture containing LSEAL (Sample 16), control without LSEAL 74%): 30%
